Values of other authors as cited in patent US9034354B2, “Bacteriostatic and anti-collagenolytic dental materials through the incorporation of polyacrylic acid modified CuI nanoparticles” (MUSC Foundation for Research Development, priority 2012, dated 2015).

Test system: Streptococcus mutans
Conditions: discs of composite resin containing MDPB versus discs without MDPB, in the presence of Streptococcus mutans

C=C(C)C(=O)OCCCCCCCCCCCC[n+]1ccccc1.[Br-] [MDPB, 12-methacryloyloxydodecylpyridinium bromide]
numbers of bacteria recovered from the discs reduced by: 97%
